The results in this text go back to patent US10604555B2, “GIP derivatives and uses thereof” (priority 2018, dated 2020).

A short description of data set [1]: Pharmacokinetic study in minipigs, terminal half-life after i.v. administration. Format: in vivo. To be noted: female, Göttingen, minipig, plasma, iv, 5 nmol/kg; read-out: t1/2 (hours) harmonic mean (converted).
Protocol: This is done in a pharmacokinetic (PK) study, where the terminal half-life of the derivative in question is determined. By terminal half-life is generally meant the period of time it takes to halve a certain plasma concentration, measured after the initial distribution phase.
Female Göttingen minipigs were obtained from Ellegaard Göttingen Minipigs (Dalmose, Denmark) approximately 7-14 months of age and weighing from approximately 16-35 kg were used in the studies. The minipigs were housed individually and fed restrictedly once daily with SDS minipig diet (Special Diets Services, Essex, UK).
After at 3 weeks of acclimatisation two permanent central venous catheters were implanted in vena cava caudalis in each animal. The animals were allowed 1 week recovery after the surgery, and were then used for repeated pharmacokinetic studies with a suitable wash-out period between successive derivative dosing.
Blood samples (for example 0.8 ml) were collected in EDTA buffer (8 mM) and then centrifuged at 4° C. and 1942G for 10 minutes.
Individual plasma concentration-time profiles were analysed by a non-compartmental model in Phoenix WnNonLin ver. […] (Pharsight Inc., Mountain View, Calif., USA), and the resulting terminal half-lives (harmonic mean) determined.
The target in another data set is T1, human GIP receptor (Homo sapiens, UniProt P48546).
T1 construct: expressed in transfected cells; host or cells: BHK (parent line BHKTS13), BHK CRE luc2P hGIPR clone #5
T1 sequence (P48546 22-466): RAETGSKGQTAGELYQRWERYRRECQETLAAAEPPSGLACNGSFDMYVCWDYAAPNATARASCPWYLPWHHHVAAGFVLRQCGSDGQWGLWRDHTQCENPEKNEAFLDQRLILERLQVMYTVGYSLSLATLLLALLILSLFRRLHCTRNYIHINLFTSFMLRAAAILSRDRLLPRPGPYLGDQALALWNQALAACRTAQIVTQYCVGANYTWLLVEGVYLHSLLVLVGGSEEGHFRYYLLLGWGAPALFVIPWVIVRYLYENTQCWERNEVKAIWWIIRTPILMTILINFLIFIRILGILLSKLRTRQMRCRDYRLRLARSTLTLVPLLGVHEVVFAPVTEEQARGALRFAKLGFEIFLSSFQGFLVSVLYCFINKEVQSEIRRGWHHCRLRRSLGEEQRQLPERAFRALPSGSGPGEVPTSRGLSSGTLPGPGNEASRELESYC
Kind of data set: In vitro potency (CRE luciferase; whole cells), BHK CRE luc2P hGIPR. Format: cell-based. Particulars: 0.2% HSA. The method in brief:
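BHK clones carrying a CRE luciferase element, each transfected with one human receptor, were seeded at 5000 cells/well overnight. Compounds were diluted in buffer with 1% ovalbumin and 0.1% Pluronic F-68, with or without human serum albumin. Luminescence was read after steadylite plus; non-linear log(agonist)-response fit, averaged over at least two replicates.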

The structures appear in SMILES notation.

Take `CCCC[C@H](NC(=O)[C@H](C)NC(=O)[C@@H](NC(=O)[C@H](CO)NC(=O)[C@H](Cc1ccc(O)cc1)NC(=O)[C@H](CC(=O)O)NC(=O)[C@H](CO)NC(=O)[C@@H](NC(=O)[C@H](Cc1ccccc1)NC(=O)[C@@H](NC(=O)CNC(=O)[C@H](CCC(=O)O)NC(=O)[C@H](C)NC(=O)[C@@H](Cc1ccc(O)cc1)NC(C)=O)[C@@H](C)O)[C@@H](C)CC)[C@@H](C)CC)C(=O)N[C@@H](CC(=O)O)C(=O)N[C@@H](CCCCN)C(=O)N[C@H](C(=O)N[C@@H](CCCNC(=N)N)C(=O)N[C@@H](CCC(N)=O)C(=O)N[C@@H](CCC(N)=O)C(=O)N[C@@H](CC(=O)O)C(=O)N[C@@H](Cc1ccccc1)C(=O)N[C@H](C(=O)N[C@@H](CCCCNC(=O)COCCOCCNC(=O)COCCOCCNC(=O)CC[C@H](NC(=O)CCCCCCCCCCCCCCCCC(=O)O)C(=O)O)C(=O)N[C@@H](Cc1c[nH]c2ccccc12)C(=O)N[C@@H](CC(C)C)C(=O)N[C@@H](CC(C)C)C(=O)N[C@@H](C)C(=O)N[C@@H](CCC(N)=O)C(=O)N[C@@H](CCCCN)C(=O)NCC(=O)O)C(C)C)[C@@H](C)CC` [Compound 15, N{1}-acetyl,N{Epsilon-24}-[2-[2-[2-[[2-[2-[2-[[(4S)-4-carboxy-4-(17-carboxyheptadecanoylamino)butanoyl]amino]ethoxy]ethoxy]acetyl]amino]ethoxy]ethoxy]acetyl]-[D-Tyr1,Nle14,Arg18,Lys24]-hGIP(1-31)]: the half-life in data set [1] is 81 h. Also, the EC50 at human GIP receptor amounted to 0.0304 nM.

With `CCCC[C@H](NC(=O)[C@H](C)NC(=O)[C@@H](NC(=O)[C@H](CO)NC(=O)[C@H](Cc1ccc(O)cc1)NC(=O)[C@H](CC(=O)O)NC(=O)[C@H](CO)NC(=O)[C@@H](NC(=O)[C@H](Cc1ccccc1)NC(=O)[C@@H](NC(=O)CNC(=O)[C@H](CCC(=O)O)NC(=O)[C@H](C)NC(=O)[C@@H](Cc1ccc(O)cc1)NC(C)=O)[C@@H](C)O)[C@@H](C)CC)[C@@H](C)CC)C(=O)N[C@@H](CC(=O)O)C(=O)N[C@@H](CCCCN)C(=O)N[C@H](C(=O)N[C@@H](CCCNC(=N)N)C(=O)N[C@@H](CCC(N)=O)C(=O)N[C@@H](CCC(N)=O)C(=O)N[C@@H](CC(=O)O)C(=O)N[C@@H](Cc1ccccc1)C(=O)N[C@H](C(=O)N[C@@H](CCCCNC(=O)COCCOCCNC(=O)COCCOCCNC(=O)CC[C@H](NC(=O)CC[C@H](NC(=O)CC[C@H](NC(=O)CCCCCCCCCCCCCCCCC(=O)O)C(=O)O)C(=O)O)C(=O)O)C(=O)N[C@@H](Cc1c[nH]c2ccccc12)C(=O)N[C@@H](CC(C)C)C(=O)N[C@@H](CC(C)C)C(=O)N[C@@H](C)C(=O)N[C@@H](CCC(N)=O)C(=O)N[C@@H](CCCCN)C(=O)NCC(=O)O)C(C)C)[C@@H](C)CC` [Compound 17, N{1}-acetyl,N{Epsilon-24}-[2-[2-[2-[[2-[2-[2-[[(4S)-4-carboxy-4-[[(4S)-4-carboxy-4-[[(4S)-4-carboxy-4-(17-carboxyheptadecanoylamino)butanoyl]amino]butanoyl]amino]-butanoyl]amino]ethoxy]ethoxy]acetyl]amino]ethoxy]ethoxy]acetyl]-[D-Tyr1,Nle14,Arg18,Lys24]-hGIP(1-31)], the half-life in data set [1] was 88 h. The midpoint of the response on human GIP receptor, the EC50, lay at 0.0431 nM.

The EC50 is the concentration needed to bring the measured effect to its halfway point. Read a high EC50 as lower potency in that assay.
